Data from PubChem BioAssay AID194 (DTP/NCI, 2004).
Results filed as inconclusive are left out.

Test system: BDF1 mice, B16 melanoma s.c., survival/tumor T/C
Assay: NCI In Vivo Anticancer Drug Screen. Data for tumor model B16 Melanoma (subcutaneous) in B6D2F1 (BDF1) mice
Details: vehicle: Klucel (hydroxypropylcellulose) (HPC)
Description: The antitumor activity of compounds was measured in mice bearing transplantable tumors. Survival or tumor size were measured and the results are expressed as the measurement made in the treated group (T) divided by the measurement made in the vehicle treated control group (C). The tumor model used in this assay is B16 Melanoma (subcutaneous) in B6D2F1 (BDF1) mice

**Q.** `O=NN(CCF)C(=O)NC1CCCCC1` was tested. Which T/C (endpoint: median survival time, dose: 0.63 mg/kg/injection, schedule: Q01HX012 (ip), higher = longer survival) did it give?
**A.** 123 % of control

**Q.** And the T/C (endpoint: median survival time, dose: 1.25 mg/kg/injection, schedule: Q01HX012 (ip), higher = longer survival)?
**A.** 107 % of control

**Q.** What about the T/C (endpoint: median survival time, dose: 1.25 mg/kg/injection, schedule: Q02HX006 (ip), higher = longer survival) of the same compound?
**A.** 96 % of control

**Q.** What about the T/C (endpoint: median survival time, dose: 1.88 mg/kg/injection, schedule: Q03HX004 (ip), higher = longer survival) of the same compound?
**A.** 96 % of control

**Q.** What about the T/C (endpoint: median survival time, dose: 2.5 mg/kg/injection, schedule: Q02HX006 (ip), higher = longer survival) of the same compound?
**A.** 101 % of control

**Q.** And the T/C (endpoint: median survival time, dose: 3.11 mg/kg/injection, schedule: Q01DX007 (ip), higher = longer survival)?
**A.** 98 % of control

**Q.** And the T/C (endpoint: median survival time, dose: 5.0 mg/kg/injection, schedule: Q01HX012 (ip), higher = longer survival)?
**A.** 242 % of control

**Q.** What about the T/C (endpoint: median survival time, dose: 5.0 mg/kg/injection, schedule: Q02HX006 (ip), higher = longer survival) of the same compound?
**A.** 115 % of control

**Q.** And the T/C (endpoint: median survival time, dose: 5.18 mg/kg/injection, schedule: Q01DX007 (ip), higher = longer survival)?
**A.** 102 % of control

**Q.** What about the T/C (endpoint: median survival time, dose: 7.5 mg/kg/injection, schedule: Q01DX001 (ip), higher = longer survival) of the same compound?
**A.** 107 % of control

**Q.** What about the T/C (endpoint: median survival time, dose: 7.5 mg/kg/injection, schedule: Q03HX004 (ip), higher = longer survival) of the same compound?
**A.** 115 % of control

**Q.** And the T/C (endpoint: median survival time, dose: 10.0 mg/kg/injection, schedule: Q02HX006 (ip), higher = longer survival)?
**A.** 261 % of control

**Q.** What about the T/C (endpoint: median survival time, dose: 14.4 mg/kg/injection, schedule: Q01DX007 (ip), higher = longer survival) of the same compound?
**A.** 120 % of control

**Q.** What about the T/C (endpoint: median survival time, dose: 15.0 mg/kg/injection, schedule: Q01DX001 (ip), higher = longer survival) of the same compound?
**A.** 119 % of control

**Q.** What about the T/C (endpoint: median survival time, dose: 15.0 mg/kg/injection, schedule: Q03HX004 (ip), higher = longer survival) of the same compound?
**A.** 157 % of control

**Q.** And the T/C (endpoint: median survival time, dose: 15.8 mg/kg/injection, schedule: Q01DX007 (ip), higher = longer survival)?
**A.** 115 % of control

**Q.** And the T/C (endpoint: median survival time, dose: 20.0 mg/kg/injection, schedule: Q02HX006 (ip), higher = longer survival)?
**A.** 88 % of control

**Q.** What about the T/C (endpoint: median survival time, dose: 23.7 mg/kg/injection, schedule: Q01DX007 (ip), higher = longer survival) of the same compound?
**A.** 68 % of control

**Q.** And the T/C (endpoint: median survival time, dose: 30.0 mg/kg/injection, schedule: Q01DX001 (ip), higher = longer survival)?
**A.** 164 % of control

**Q.** What about the T/C (endpoint: median survival time, dose: 30.0 mg/kg/injection, schedule: Q03HX004 (ip), higher = longer survival) of the same compound?
**A.** 326 % of control

**Q.** What about the T/C (endpoint: median survival time, dose: 35.6 mg/kg/injection, schedule: Q01DX007 (ip), higher = longer survival) of the same compound?
**A.** 69 % of control

**Q.** And the T/C (endpoint: median survival time, dose: 53.3 mg/kg/injection, schedule: Q01DX007 (ip), higher = longer survival)?
**A.** 60 % of control

**Q.** And the T/C (endpoint: median survival time, dose: 60.0 mg/kg/injection, schedule: Q01DX001 (ip), higher = longer survival)?
**A.** 238 % of control

**Q.** What about the T/C (endpoint: median survival time, dose: 80.0 mg/kg/injection, schedule: Q01DX007 (ip), higher = longer survival) of the same compound?
**A.** 55 % of control

**Q.** And the T/C (endpoint: median tumor weight (est.), dose: 1.25 mg/kg/injection, schedule: Q01HX012 (ip), higher = larger tumour)?
**A.** 59 % of control

**Q.** What about the T/C (endpoint: median tumor weight (est.), dose: 1.25 mg/kg/injection, schedule: Q02HX006 (ip), higher = larger tumour) of the same compound?
**A.** 114 % of control

**Q.** What about the T/C (endpoint: median tumor weight (est.), dose: 1.88 mg/kg/injection, schedule: Q03HX004 (ip), higher = larger tumour) of the same compound?
**A.** 61 % of control

**Q.** What about the T/C (endpoint: median tumor weight (est.), dose: 2.5 mg/kg/injection, schedule: Q01HX012 (ip), higher = larger tumour) of the same compound?
**A.** 10 % of control

**Q.** What about the T/C (endpoint: median tumor weight (est.), dose: 2.5 mg/kg/injection, schedule: Q02HX006 (ip), higher = larger tumour) of the same compound?
**A.** 67 % of control

**Q.** And the T/C (endpoint: median tumor weight (est.), dose: 3.75 mg/kg/injection, schedule: Q03HX004 (ip), higher = larger tumour)?
**A.** 83 % of control

**Q.** And the T/C (endpoint: median tumor weight (est.), dose: 5.0 mg/kg/injection, schedule: Q02HX006 (ip), higher = larger tumour)?
**A.** 26 % of control

**Q.** What about the T/C (endpoint: median tumor weight (est.), dose: 7.5 mg/kg/injection, schedule: Q01DX001 (ip), higher = larger tumour) of the same compound?
**A.** 110 % of control

**Q.** And the T/C (endpoint: median tumor weight (est.), dose: 7.5 mg/kg/injection, schedule: Q03HX004 (ip), higher = larger tumour)?
**A.** 70 % of control

**Q.** And the T/C (endpoint: median tumor weight (est.), dose: 15.0 mg/kg/injection, schedule: Q01DX001 (ip), higher = larger tumour)?
**A.** 70 % of control
